One assay deals with MLL-AF9 cells. Description: MLL-AF9 leukemia cell growth inhibition, dose-response viability assay (CellTiterGlo). The assay is classed as cell-based, murine. The following applies: Mus musculus, read-out: MLL-AF9 EC50. The protocol:
(§1) The potency of the compounds of Example 6 at inhibiting OCI-AML3 cell growth was tested using a procedure similar to that described for Mutritinib in Example 1. […] Murine MLL-AF9 leukemia cells (female cells) were generated by infection with VSV-G-pseudotyped MSCV MLL-AF9 IRES Puro (subcloned from a construct by Frédéric Barabé, Laval U, Quebec, QC, Canada).
(§2) Compounds were added to seeded cells in serial dilutions from 10 μM to 0.5 nM, in duplicates or quadruplicates.
(In general: Cellular ATP, detected with luciferase, serves as a proxy for viable cell number.)

The next assay concerns OCI-AML3 cells. The assay is described as follows: OCI-AML3 cell growth inhibition, dose-response viability assay (CellTiterGlo). The note with it: Homo sapiens, OCI-AML-3, 144 h, read-out: AML-3 EC50. The assay is classed as cell-based. The procedure:
Cell dose-response viability assays. […] In the initial screen, compounds were added to seeded cells in serial dilutions (10 dilutions, 1:3, starting from […] 20 μM), in duplicates.
as §1, §2

Structures are written as SMILES. Read-outs that look alike come from different tables or passages of the source.

Usually EC50 stands for the concentration giving half of the maximal effect. Turning to `OC(CCCn1ccnn1)c1ccc(OCc2coc(/C=C/c3ccc(Br)cc3F)n2)cc1` (stereo not shown) [Compound 21, (E)-1-(4-((2-(4-bromo-2-fluorostyryl)oxazol-4-yl)methoxy)phenyl)-4-(1H-1,2,3-triazol-1-yl)butan-1-ol], the EC50 with MLL-AF9 cells (MLL-AF9, 120 h) fell in the range of 50 to 100 nM; with OCI-AML3 cells it was 100 to 500 nM.

For `O=C(CCCn1ccnn1)c1ccc(OCc2coc(/C=C/c3ccc(C(F)(F)F)cc3F)n2)cc1` [Compound 22, (E)-1-(4-((2-(2-fluoro-4-(trifluoromethyl)styryl)oxazol-4-yl)methoxy)phenyl)-4-(1H-1,2,3-triazol-1-yl)butan-1-one], the concentration for a half-maximal effect (EC50) in the assay on MLL-AF9 cells (MLL-AF9, 120 h) lay within 100 to 500 nM; in the assay on OCI-AML3 cells, 500 to 1000 nM.

Take `OC(CCCn1ccnn1)c1ccc(OCc2coc(/C=C/c3ccc(C(F)(F)F)cc3F)n2)cc1` (stereo not shown) [Compound 23, (E)-1-(4-((2-(2-fluoro-4-(trifluoromethyl)styryl)oxazol-4-yl)methoxy)phenyl)-4-(1H-1,2,3-triazol-1-yl)butan-1-ol]: the EC50 fell in the range of 50 to 100 nM with MLL-AF9 cells (MLL-AF9, 120 h) and 100 to 500 nM in the assay with OCI-AML3 cells.

In the case of `O=C(CCCn1ccnn1)c1ccc(OCc2coc(/C=C/c3ccc([N+](=O)[O-])cc3F)n2)cc1` [Compound 24, (E)-1-(4-((2-(2-fluoro-4-nitrostyryl)oxazol-4-yl)methoxy)phenyl)-4-(1H-1,2,3-triazol-1-yl)butan-1-one], the EC50 lay in the range of 500 to 1000 nM in the assay with MLL-AF9 cells (MLL-AF9, 120 h) and 1000 to 10000 nM with OCI-AML3 cells.

As to `O=[N+]([O-])c1ccc(/C=C/c2nc(COc3ccc(C(O)CCCn4ccnn4)cc3)co2)c(F)c1` (stereo not shown) [Compound 25, (E)-1-(4-((2-(2-fluoro-4-nitrostyryl)oxazol-4-yl)methoxy)phenyl)-4-(1H-1,2,3-triazol-1-yl)butan-1-ol], the 50% effective concentration (EC50) is 500 to 1000 nM in the assay with MLL-AF9 cells (MLL-AF9, 120 h) and 1000 to 10000 nM with OCI-AML3 cells.

In the case of `FC(F)(F)c1ccc(/C=C/c2nc(CNc3ccc(CCCCn4ccnn4)cc3)co2)cc1` [Compound 26, (E)-4-(4-(1H-1,2,3-triazol-1-yl)butyl)-N-((2-(4-(trifluoromethyl)styryl)oxazol-4-yl)methyl)aniline], the EC50 in the assay on MLL-AF9 cells (MLL-AF9, 120 h) fell in the range of 100 to 500 nM; with OCI-AML3 cells, 1000 to 10000 nM.

In the case of `Fc1cc(Br)ccc1/C=C/c1nc(CNc2ccc(CCCCn3ccnn3)cc2)co1` [Compound 27, (E)-4-(4-(1H-1,2,3-triazol-1-yl)butyl)-N-((2-(4-bromo-2-fluorostyryl)oxazol-4-yl)methyl)aniline], the EC50 in the assay on MLL-AF9 cells (MLL-AF9, 120 h) was 50 to 100 nM; with OCI-AML3 cells, 500 to 1000 nM.

With `FC(F)(F)c1ccc(-c2nc(COc3ccc(CCCCn4ccnn4)cc3)co2)cc1` [Compound 28, 4-((4-(4-(1H-1,2,3-triazol-1-yl)butyl)phenoxy)methyl)-2-(4-(trifluoromethyl)phenyl)oxazole], the concentration giving a half-maximal response (EC50) in the assay with MLL-AF9 cells (120 h, MLL-AF9 cells, 5 days of culture, CellTiterGlo) fell in the range of 100 to 500 nM; with OCI-AML3 cells (OCI-AML3 cells, 6 days of culture, CellTiterGlo), 1000 to 10000 nM.

Take `O=C(Nc1ccc(CCCCO)cc1)c1coc(/C=C/c2ccc(C(F)(F)F)cc2)n1` [Compound 29, (E)-N-(4-(4-hydroxybutyl)phenyl)-2-(4-(trifluoromethyl)styryl)oxazole-4-carboxamide]: the EC50 lay in the range of 100 to 500 nM with MLL-AF9 cells (MLL-AF9, 120 h) and 1000 to 10000 nM in the assay on OCI-AML3 cells.

Consider `O=C(Nc1ccc(CCCCn2ccnn2)cc1)c1coc(/C=C/c2ccc(C(F)(F)F)cc2)n1` [Compound 30, (E)-N-(4-(4-(1H-1,2,3-triazol-1-yl)butyl)phenyl)-2-(4-(trifluoromethyl)styryl)oxazole-4-carboxamide], for which the EC50 in the assay with MLL-AF9 cells (MLL-AF9, 120 h) is 100 to 500 nM; in the assay on OCI-AML3 cells it was 500 to 1000 nM.

As for `CN(C)c1cccc2c(S(=O)(=O)NCCc3cn(CCCCc4ccc(OCc5coc(/C=C/c6ccc(C(F)(F)F)cc6)n5)cc4)nn3)cccc12` [Compound 31, (E)-5-(dimethylamino)-N-(2-(1-(4-(4-((2-(4-(trifluoromethyl)styryl)oxazol-4-yl)methoxy)phenyl)butyl)-1H-1,2,3-triazol-4-yl)ethyl)naphthalene-1-sulfonamide], the EC50 was 500 to 1000 nM in the assay with MLL-AF9 cells (MLL-AF9, 120 h) and 1000 to 10000 nM in the assay with OCI-AML3 cells.

`COc1ccc(/C=C/c2nc(COc3ccc(CCCCn4ccnn4)cc3)co2)cc1` [Compound 32, (E)-4-((4-(4-(1H-1,2,3-triazol-1-yl)butyl)phenoxy)methyl)-2-(4-methoxystyryl)oxazole]: the 50% effective concentration (EC50) in the assay with MLL-AF9 cells (MLL-AF9, 120 h) is 100 to 500 nM; with OCI-AML3 cells, 100 to 500 nM.

`Brc1ccc(/C=C/c2nc(COc3ccc(CCCCn4ccnn4)cc3)co2)cc1` [Compound 33, (E)-4-((4-(4-(1H-1,2,3-triazol-1-yl)butyl)phenoxy)methyl)-2-(4-bromostyryl)oxazole]: the EC50 in the assay with MLL-AF9 cells (MLL-AF9, 120 h) was in the range of 100 to 500 nM; with OCI-AML3 cells, 100 to 500 nM.

In the case of `CCN(CC)C(=O)OCCCCc1ccc(OCc2coc(/C=C/c3ccc(C(F)(F)F)cc3)n2)cc1` [Compound 34, (E)-4-(4-((2-(4-(trifluoromethyl)styryl)oxazol-4-yl)methoxy)phenyl)butyl diethylcarbamate], the half-maximal effective concentration (EC50) with MLL-AF9 cells (MLL-AF9, 120 h) was 1000 to 10000 nM; in the assay on OCI-AML3 cells it was 1000 to 10000 nM.

Regarding `O=C(OCCCCc1ccc(OCc2coc(/C=C/c3ccc(C(F)(F)F)cc3)n2)cc1)N1CCOCC1` [Compound 35, (E)-4-(4-((2-(4-(trifluoromethyl)styryl)oxazol-4-yl)methoxy)phenyl)butyl morpholine-4-carboxylate], the half-maximal effective concentration (EC50) in the assay with MLL-AF9 cells (MLL-AF9, 120 h) was 500 to 1000 nM; in the assay on OCI-AML3 cells, 1000 to 10000 nM.

In the case of `CN(C)C(=O)OCCCCc1ccc(OCc2coc(/C=C/c3ccc(C(F)(F)F)cc3)n2)cc1` [Compound 36, (E)-4-(4-((2-(4-(trifluoromethyl)styryl)oxazol-4-yl)methoxy)phenyl)butyl dimethylcarbamate], the EC50 with MLL-AF9 cells (MLL-AF9, 120 h) fell in the range of 1000 to 10000 nM; in the assay with OCI-AML3 cells, 1000 to 10000 nM.

As to `N#Cc1ccc(/C=C/c2nc(COc3ccc(CCCCn4ccnn4)cc3)co2)cc1` [Compound 37, (E)-4-(2-(4-((4-(4-(1H-1,2,3-triazol-1-yl)butyl)phenoxy)methyl)oxazol-2-yl)vinyl)benzonitrile], the EC50 in the assay on MLL-AF9 cells (MLL-AF9, 120 h) was in the range of 100 to 500 nM; in the assay with OCI-AML3 cells, 100 to 500 nM.

As to `Clc1ccc(/C=C/c2nc(COc3ccc(CCCCn4ccnn4)cc3)co2)cc1` [Compound 38, (E)-4-((4-(4-(1H-1,2,3-triazol-1-yl)butyl)phenoxy)methyl)-2-(4-chlorostyryl)oxazole], the concentration giving a half-maximal response (EC50) in the assay on MLL-AF9 cells (MLL-AF9, 120 h) was in the range of 100 to 500 nM; in the assay on OCI-AML3 cells, 50 to 100 nM.

As to `Fc1ccc(/C=C/c2nc(COc3ccc(CCCCn4ccnn4)cc3)co2)cc1` [Compound 39, (E)-4-((4-(4-(1H-1,2,3-triazol-1-yl)butyl)phenoxy)methyl)-2-(4-fluorostyryl)oxazole], the EC50 was in the range of 100 to 500 nM in the assay with MLL-AF9 cells (MLL-AF9, 120 h) and 100 to 500 nM with OCI-AML3 cells.

As for `O=[N+]([O-])c1ccc(/C=C/c2nc(COc3ccc(CCCCn4ccnn4)cc3)co2)cc1` [Compound 40, (E)-4-((4-(4-(1H-1,2,3-triazol-1-yl)butyl)phenoxy)methyl)-2-(4-nitrostyryl)oxazole], the EC50 lay in the range of 100 to 500 nM in the assay with MLL-AF9 cells (MLL-AF9, 120 h) and 50 to 100 nM with OCI-AML3 cells.

Consider `Fc1ccccc1/C=C/c1nc(COc2ccc(CCCCn3ccnn3)cc2)co1` [Compound 41, (E)-4-((4-(4-(1H-1,2,3-triazol-1-yl)butyl)phenoxy)methyl)-2-(2-fluorostyryl)oxazole], for which the EC50 in the assay with MLL-AF9 cells (MLL-AF9, 120 h) fell in the range of 100 to 500 nM; in the assay with OCI-AML3 cells, 100 to 500 nM.

In the case of `O=[N+]([O-])c1ccccc1/C=C/c1nc(COc2ccc(CCCCn3ccnn3)cc2)co1` [Compound 42, (E)-4-((4-(4-(1H-1,2,3-triazol-1-yl)butyl)phenoxy)methyl)-2-(2-nitrostyryl)oxazole], the EC50 was in the range of 100 to 500 nM with MLL-AF9 cells (MLL-AF9, 120 h) and 500 to 1000 nM with OCI-AML3 cells.

For `O=[N+]([O-])c1cccc(/C=C/c2nc(COc3ccc(CCCCn4ccnn4)cc3)co2)c1` [Compound 43, (E)-4-((4-(4-(1H-1,2,3-triazol-1-yl)butyl)phenoxy)methyl)-2-(3-nitrostyryl)oxazole], the EC50 was in the range of 1000 to 10000 nM in the assay on MLL-AF9 cells (MLL-AF9, 120 h) and 1000 to 10000 nM in the assay with OCI-AML3 cells.

Take `FC(F)(F)c1ccccc1/C=C/c1nc(COc2ccc(CCCCn3ccnn3)cc2)co1` [Compound 44, (E)-4-((4-(4-(1H-1,2,3-triazol-1-YI)butyl)phenoxy)methyl)-2-(2-(trifluoromethyl)styryl)oxazole]: the EC50 in the assay on MLL-AF9 cells (MLL-AF9, 120 h) was greater than 10000 nM; in the assay with OCI-AML3 cells it was 1000 to 10000 nM.

`Fc1ccc(/C=C/c2nc(COc3ccc(CCCCn4ccnn4)cc3)co2)c(F)c1` [Compound 45, (E)-4-((4-(4-(1H-1,2,3-triazol-1-yl)butyl)phenoxy)methyl)-2-(2,4-difluorostyryl)oxazole]: the EC50 is 100 to 500 nM with MLL-AF9 cells (MLL-AF9, 120 h) and 50 to 100 nM in the assay with OCI-AML3 cells.

`Fc1cccc(F)c1/C=C/c1nc(COc2ccc(CCCCn3ccnn3)cc2)co1` [Compound 46, (E)-4-((4-(4-(1H-1,2,3-triazol-1-yl)butyl)phenoxy)methyl)-2-(2,6-difluorostyryl)oxazole]: the EC50 lay in the range of 1000 to 10000 nM with MLL-AF9 cells (MLL-AF9, 120 h) and 500 to 1000 nM in the assay with OCI-AML3 cells.

With `C(=C\c1nc(COc2ccc(CCCCn3ccnn3)cc2)co1)/c1ccccc1` [Compound 47, (E)-4-((4-(4-(1H-1,2,3-triazol-1-yl)butyl)phenoxy)methyl)-2-styryloxazole], the EC50 with MLL-AF9 cells (MLL-AF9, 120 h) was 100 to 500 nM; with OCI-AML3 cells, 100 to 500 nM.

With `Fc1cc(C(F)(F)F)ccc1/C=C/c1nc(COc2ccc(CCCCn3ccnn3)cc2)co1` [Compound 48, (E)-4-((4-(4-(1H-1,2,3-triazol-1-yl)butyl)phenoxy)methyl)-2-(2-fluoro-4-(trifluoromethyl)styryl)oxazole], the concentration for a half-maximal effect (EC50) was less than 50 nM in the assay with MLL-AF9 cells (MLL-AF9, 120 h) and 50 to 100 nM in the assay with OCI-AML3 cells.

Consider `FC(F)(F)c1cccc(/C=C/c2nc(COc3ccc(CCCCn4ccnn4)cc3)co2)c1` [Compound 49, (E)-4-((4-(4-(1H-1,2,3-triazol-1-yl)butyl)phenoxy)methyl)-2-(3-(trifluoromethyl)styryl)oxazole], for which the concentration giving a half-maximal response (EC50) was 1000 to 10000 nM in the assay on MLL-AF9 cells (MLL-AF9, 120 h) and 1000 to 10000 nM with OCI-AML3 cells.

For the origin of these results see patent US11760754B2, “Heterocyclic mitochondrial activity inhibitors and uses thereof” (UNIVERSITÉ DE MONTRÉAL, priority 2017, dated 2023).
